From US20180282279A1, “Pantothenamide Analogues” (Radboud Universitair Medisch Centrum, priority 2014, published 2018)
In brackets after ≈: the same amount, converted by molar mass. Where two headings read alike, the source gives them in different places. Values belong to the compound of their own block, whether it stands above or below them.

Legend:
[1] = tested on: Plasmodium falciparum NF54 parasites; assay: P. falciparum asexual blood stage replication assay (SYBR Green); format: cell-based; conditions: NF54, 10% human serum, 72 incubation
Experimental: Compounds were tested on their ability to inhibit replication of the human malaria parasite Plasmodium falciparum. To this end, Plasmodium falciparum NF54 parasites were cultured in RPMI1640 medium supplemented with 367 μM hypoxanthine, 25 mM HEPES, 25 mM sodiumbicarbonate and 10% human type A serum in an automated large-scale culture system as described before (Transactions of the Royal Society of Tropical Medicine and Hygiene, 1982. 76: p. 812-818). Compounds were diluted in DMSO and subsequently in culture medium to reach a DMSO concentration of 0.2%. 50 μl of diluted compound was transferred to a black 96 well plate. A culture of P. falciparum strain NF54 malaria parasites was diluted to a parasitaemia of 0.5% and a hematocrit of 3%. 50 μl of this diluted culture was added to each well in the 96 well plate._The outermost wells of the plate were filled with sterile water to prevent evaporation. The established antimalarial dihydroartemisinin (DHA) in DMSO acted as a positive control (MIN signal), and 0.1% DMSO acted as a negative control (MAX signal). The plates were incubated for 72 at 37° C., 3% 02, 5% CO2, 93% N2. Changes in parasite replication relative to the controls were monitored using the DNA-marker SYBR Green as described previously (Antimicrob Agents Chemother 48:1803-6). Data were analyzed by logistic regression using the formula: Y=Bottom+(Top-Bottom)/(1+10̂((Log IC50−X)*HillSlope)) and a least squares method to find the best fit.
Using similar methods, IC50 values were determined for a variety of inverted pantothenamides, as listed in table 1 (see section: ‘Detailed description of the invention’)

Staphylococcus aureus = assay: Bacterial growth assay and MIC determination, S. aureus; format: cell-based; conditions: for antibiotic activity when tested in the presence of serum: 10% serum
Experimental: (§1) Strains of Escherichia coli, Staphylococcus aureus and Staphylococcus epidermidis, were grown overnight in 1% Bacto tryptone medium (BD, Sparks, Md.). Streptococcus pyogenes was grown overnight in Bacto Todd Hewitt Broth medium (BD, Sparks, Md.). Cultures were then diluted 1:1,000 in fresh assay medium supplemented with or without 20% fetal bovine serum (FBS; HyClone, Celbio, Logan, Utah) and added to 96-well sterile enzyme-linked immunosorbent assay (ELISA) plates (100 μl per well). The compounds to be tested were diluted in the medium without serum and added to the bacteria (100 μl per well). Plates were incubated at 37° C., and bacterial growth was monitored over time by reading the optical density at 490 nm using a microplate reader (model 450; Bio-Rad Laboratories Inc., Hercules, Calif.). Streptococcus pneumoniae strains were grown to mid-log phase (OD620 of 0.3) and stored in 15% glycerol at […] till further use. Minimal inhibitory concentration (MIC) of antibiotics was determined according to standard procedures. Bacteria were diluted 10-fold in Mueller-Hinton medium (BD, Sparks, Md.) and added to 96-well sterile ELISA plates (150 μl per well). The compounds to be tested were diluted in the medium without serum and added to the bacteria (150 μl per well). Plates were incubated overnight at 37° C. in 5% CO2. The MIC was defined as the lowest concentration of compound at which no growth was visible with the naked eye.

[2] = tested on: Staphylococcus epidermidis; assay: Bacterial growth assay and MIC determination, S. epidermidis; format: cell-based
Experimental: as §1

Streptococcus pyogenes = assay: Bacterial growth assay and MIC determination, S. pyogenes; format: cell-based
Experimental: as §1

Streptococcus pneumoniae = assay: MIC determination, S. pneumoniae; format: cell-based; conditions: for MIC: Streptococcus pneumoniae
Experimental: Streptococcus pneumoniae strains were grown to mid-log phase (OD620 of 0.3) and stored in 15% glycerol at […] till further use. Minimal inhibitory concentration (MIC) of antibiotics was determined according to standard procedures. Bacteria were diluted 10-fold in Mueller-Hinton medium (BD, Sparks, Md.) and added to 96-well sterile ELISA plates (150 μl per well). The compounds to be tested were diluted in the medium without serum and added to the bacteria (150 μl per well). Plates were incubated overnight at 37° C. in 5% CO2. The MIC was defined as the lowest concentration of compound at which no growth was visible with the naked eye.

Escherichia coli = assay: Bacterial growth assay and MIC determination, E. coli; format: cell-based; conditions: serum −
Experimental: as §1

[3] = tested on: P. falciparum gametocytes; assay: microbe, parasite or virus in culture; format: cell-based, Plasmodium falciparum; conditions: Plasmodium falciparum; 72 hour incubation; read-out: Gametocyte viability (pLDH) IC50
Experimental: Compounds were tested for their ability to affect the viability of gametocytes, the sexually committed blood stages of P. falciparum that underlie transmission to the mosquito vector. To this end, two different assays were performed. The first assay monitored pLDH activity as a measure of viability of gametocytes (J Antimicrob Chemother. 2013 September; 68(9):2048-58). The second assay monitored the ability of gametocytes to form a female gamete by detection of the gamete-specific marker Pfs25. Plasmodium falciparum NF54 parasites were cultured in RPMI1640 medium supplemented with 367 μM hypoxanthine, 25 mM HEPES, 25 mM sodiumbicarbonate and 10% human type A serum in an automated large-scale culture system as described before (Transactions of the Royal Society of Tropical Medicine and Hygiene, 1982. 76: p. 812-818). Cultures were treated with 50 mM N-acetyl-D-glucosamine from day 4 till day 9 to kill asexual parasites. On day 11 gametocytes were isolated by discontinuous 63% Percoll gradient centrifugation. Compounds were diluted in DMSO and subsequently in culture medium to reach a DMSO concentration of 0.2%. To measure the effect of compounds of pLDH activity, gametocytes were seeded at a density of 3.5×10^4 gametocytes per well in a black 384 well plate in 30 μl of culture medium, and 30 μl of diluted compound was added. Following a 72 hour incubation at 37° C., 98% humidity, 93% N2, 4% CO2 and 3% O2, gametocyte viability was measured by a modified plasmodium lactate dehydrogenase assay by using resazurin as a substrate as previously described (Nature, 2013. 504(7479): p. 248-53). Assays were performed in quadruplicate (two different plates with two different gametocyte batches) and all plates included controls MIN (1 μM DHA), MAX (0.1% DMSO) and a serial dilution of reference compound dihydroartemisinin (DHA).

[4] = tested on: P. falciparum gametocytes; assay: Gametocyte female gametogenesis capacity assay (Pfs25 AlphaLISA); format: cell-based; conditions: Plasmodium falciparum; 72 hours incubation, Table 3; read-out: Gametocyte gametogenesis capacity (Pfs25) IC50
Experimental: To monitor compound effects on the ability of a gametocyte to form a female gamete, day 11 (stage IV) gametocytes were seeded at a density of 4×10^5 gametocytes per well in a V-bottom plate in 50 μl culture medium. 50 μl of diluted compound was added to the gametocytes (0.1% DMSO final concentration) and plates were incubated for 72 hours at 37° C., 98% humidity, 93% N2, 4% CO2 and 3% O2. Subsequently, gametogenesis was induced by adding xanthurenic acid to a final concentration of 40 μM and plates were incubated for 16 hours at 20° C. Gametes were detected in a homogeneous proximity immunoassay on basis of Pfs25 expression by use of AlphaLISA technology (Perkin Elmer). All steps were performed at 20° C. Gametes were washed twice with PBS, lysed for 15 min in 10 μl 10 mM Tris pH 8.0/1% laurylsarcosyl/1 mM phenylmethanesulfonyl fluoride and combined with 10 μl 5 nM biotinylated mouse anti-Pfs25 monoclonal antibody 32F6244 in a white 384 well optiplate (Perkin Elmer). After 1 hour incubation 15 μl of 33 μg/ml acceptorbeads coated with mouse anti-Pfs25 monoclonal antibody 32F81 were added. After 1 hour incubation, 15 μl 33 μg/ml Streptavidin-conjugated donorbeads were added. Finally, after 1 hour incubation luminescence signals were monitored at the 615 nm emission wavelength following excitation at 680 nm using a fluorometer (Biotek Synergy 2). All compounds were tested in duplicate (24 hr) or triplicate (1 and 72 hr). Controls included MIN (0.1 μM epoxomicin) and MAX (0.1% DMSO). Data were analyzed by logistic regression using the formula: Y=Bottom+(Top−Bottom)/(1+10̂((Log IC50−X)*HillSlope)) and a least squares method to find the best fit.

[5] = Pharmacokinetic study in rats; format: in vivo
Experimental: To address the question if increased stability would also lead to improved bioavailability in vivo, a pharmacokinetic study was performed. Briefly, the pantothenamides N5-Pan (an antibacterial compound) and CXP18.3-002 (an antimalarial compound), and their corresponding inverted amides CXP18.6-013 and CXP18.6-006 were administered to rats at 50 mg/kg dissolved in saline. Blood samples were collected from 3 rats before the experiment and at 0.25, 0.5, 1, 2, 4, 6, 8, 12 and 24 h. The concentrations of the compounds were analyzed by LC-MS/MS (AB Sciex API-4000 system). Data were analyzed by the Non-compartmental analysis tool of Phoenix WinNonlin (Version 6.3).

[6] = Staphylococcus aureus, S. aureus, serum + (10% serum), read-out: MIC
[7] = Staphylococcus aureus, S. aureus, serum −, read-out: MIC
[8] = Staphylococcus aureus, Table 1, most sensitive species S. aureus (SA), read-out: MIC (μg/ml) for most sensitive bacterial species
[9] = Staphylococcus epidermidis, S. epidermidis, serum −, read-out: MIC
[10] = Staphylococcus epidermidis, Table 1, most sensitive species S. epidermidis (SE), read-out: MIC (μg/ml) for most sensitive bacterial species
[11] = Streptococcus pyogenes, S. pyogenes, serum −, read-out: MIC
[12] = S. pneumoniae, serum −, read-out: MIC
[13] = Escherichia coli, read-out: MIC
[14] = Streptococcus pyogenes, Table 1, most sensitive species S. pyogenes (SP), read-out: MIC (μg/ml) for most sensitive bacterial species
[15] = rat, blood, 50 mg/kg in saline, oral administration

SMILES: CC(C)(CO)[C@@H](O)C(=O)NCCNC(=O)CCc1cccs1 [CXP18.6-047]
IC50 [1]: 0.1 µM
MIC (Streptococcus pyogenes; [14]): 8 µg/mL (≈ 24.4 µM)
IC50 [3]: > 10 µM
IC50 [4]: 0.168 µM

SMILES: CC(C)(CO)[C@@H](O)C(=O)NCCNC(=O)CCc1ccsc1 [CXP18.6-046]
IC50 [1]: 0.057 µM
MIC (Streptococcus pyogenes; [14]): 32 µg/mL (≈ 97.4 µM)
IC50 [3]: > 10 µM
IC50 [4]: 0.401 µM

SMILES: CCCCCC(=O)NCCNC(=O)[C@H](O)C(C)(C)CO [CXP18.6-013]
IC50 [1]: 0.63 µM
MIC (Staphylococcus aureus; [7]): 32 µg/mL (≈ 111 µM)
activity of inverted pantothenamide compared to the parent compound ([2]; S. epidermidis): gain of antimicrobial activity
MIC [2, 9]: 1 µg/mL (≈ 3.47 µM)
MIC [2, 10]: 1 µg/mL (≈ 3.47 µM)
MIC (Streptococcus pyogenes; [11]): 2 µg/mL (≈ 6.94 µM)
MIC (Streptococcus pneumoniae; [12]): 4 µg/mL (≈ 13.9 µM)
MIC (Streptococcus pneumoniae; Table 1, S. pneumoniae (SPn), read-out: MIC (μg/ml) for most sensitive bacterial species): 4 µg/mL (≈ 13.9 µM)
MIC (Escherichia coli; [13]): > 256 µg/mL
AUC(0-inf) [5, 15]: 11600 ng·h/mL
Cmax [5, 15]: 12100 ng/mL
Tmax [5, 15]: 0.33 h
half-life ([5]; rat, blood, 50 mg/kg in saline, oral administration, elimination phase): 5.9 h

SMILES: Cc1ccc(CCC(=O)NCCNC(=O)[C@H](O)C(C)(C)CO)c(F)c1 [CXP18.6-064]
IC50 [1]: 0.042 µM
MIC [2, 10]: 2 µg/mL (≈ 5.64 µM)
IC50 [3]: 0.042 µM
IC50 [4]: 0.017 µM

Now from value to compound, other results behind:

IC50 [1]: 7.5 µM
MIC (Staphylococcus aureus; [6]): 1 µg/mL
MIC (Staphylococcus aureus; [7]): 1 µg/mL (≈ 2.9 µM)
MIC (Staphylococcus aureus; [8]): 1 µg/mL (≈ 2.9 µM)
MIC [2, 9]: 1 µg/mL (≈ 2.9 µM)
MIC [2, 10]: 1 µg/mL (≈ 2.9 µM)
MIC (Streptococcus pyogenes; [11]): 32 µg/mL (≈ 92.9 µM)
MIC (Streptococcus pneumoniae; [12]): > 32 µg/mL
MIC (Escherichia coli; [13]): > 256 µg/mL
SMILES: CCCCCCCCCC(=O)NCCNC(=O)[C@H](O)C(C)(C)CO [CXP18.6-014]
antibiotic activity when tested in the presence of serum (Staphylococcus aureus; S. aureus): retained activity

MIC (Staphylococcus aureus; S. aureus, serum + (10% serum)): >256 µg/mL
MIC (Staphylococcus aureus; [6]): > 256 µg/mL
MIC (Staphylococcus aureus; [7]): 0.5 µg/mL (≈ 1.58 µM)
MIC [2, 9]: 0.5 µg/mL (≈ 1.58 µM)
MIC (Streptococcus pyogenes; [11]): 2 µg/mL (≈ 6.32 µM)
MIC (Streptococcus pneumoniae; [12]): 2 µg/mL (≈ 6.32 µM)
MIC (Escherichia coli; [13]): 128 µg/mL (≈ 404 µM)
SMILES: CCCCCCCNC(=O)CCNC(=O)[C@H](O)C(C)(C)CO [Compound N7-Pan, N-heptylpantothenamide, reference compound]

MIC (Staphylococcus aureus; [7]): 8 µg/mL (≈ 27.7 µM)
MIC [2, 9]: 32 µg/mL (≈ 111 µM)
MIC (Streptococcus pneumoniae; [12]): 0.25 µg/mL (≈ 0.867 µM)
MIC (Escherichia coli; [13]): 64 µg/mL (≈ 222 µM)
detection in blood following oral administration ([5]; 50 mg/kg): could not or hardly be detected
SMILES: CCCCCNC(=O)CCNC(=O)[C@H](O)C(C)(C)CO [Compound N5-Pan, N-pentylpantothenamide, reference compound]

MIC (Staphylococcus aureus; S. aureus, serum + (10% serum)): >256 µg/mL
MIC (Staphylococcus aureus; S. aureus, serum −): 0.5 µg/mL (≈ 1.45 µM)
MIC ([2]; S. epidermidis, serum −): 0.25 µg/mL (≈ 0.726 µM)
MIC (Streptococcus pyogenes; S. pyogenes, serum −): 16 µg/mL (≈ 46.4 µM)
MIC (Escherichia coli): >256 µg/mL
SMILES: CCCCCCCCCNC(=O)CCNC(=O)[C@H](O)C(C)(C)CO [Compound N9-Pan, reference compound]

IC50 [1]: 0.34 µM
MIC (Staphylococcus aureus; [6]): 4 µg/mL
MIC (Staphylococcus aureus; [7]): 1 µg/mL (≈ 3.16 µM)
MIC (Staphylococcus aureus; [8]): 1 µg/mL (≈ 3.16 µM)
MIC [2, 9]: 16 µg/mL (≈ 50.6 µM)
MIC (Streptococcus pyogenes; [11]): 32 µg/mL (≈ 101 µM)
MIC (Streptococcus pneumoniae; [12]): > 32 µg/mL
MIC (Escherichia coli; [13]): > 256 µg/mL
SMILES: CCCCCCCC(=O)NCCNC(=O)[C@H](O)C(C)(C)CO [CXP18.6-012]
antibiotic activity when tested in the presence of serum (Staphylococcus aureus; S. aureus): retained activity
activity of inverted pantothenamide compared to the parent compound (Streptococcus pneumoniae; S. pneumoniae): loss of activity
